Test results as given in US10738028B2, “Spiro three-membered ring, spiro five-membered ring peptide deformylase inhibitor and use thereof in antibacteria and anti-tumor” (priority 2016, dated 2020).

Assays:
Assay type in all cases: cell-based
[1] = tested on: HCT-116 colorectal cancer cell line; test: CCK-8 proliferation inhibition; conditions: Homo sapiens, HCT-116, 72 h, concentration of 30 μM; 72 hours; CCK-8; read-out: HCT116 inhibition rate/%
Procedure, shortened: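 Proliferation over 72 hours of compound treatment was measured with CCK-8 against a 1‰ DMSO control.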

[2] = tested on: Escherichia coli (including ESBLs, non-ESBLs); test: MIC, two-fold agar dilution (CLSI), clinical isolates
From the text: (§1) 1. The invention adopts the two-fold agar dilution method recommended by the operating procedure of antimicrobial susceptibility testing set by American Clinical and Laboratory Standards Institute (CLSI) to determine the Minimum Inhibitory Concentration (MIC) of the test samples against the tested strains.

[3] = tested on: Moraxella catarrhalis (BCA); test: as above
From the text: as §1

[4] = tested on: Streptococcus pneoumoniae (SPN); test: as above
From the text: as §1

[5] = tested on: Enterococcus faecalis (EFA); test: as above
From the text: as §1

[6] = tested on: methicillin-sensitive Staphylococcus epidermidis (MSSE); test: as above
From the text: as §1

[7] = tested on: methicillin-resistant Staphylococcus epidermidis (MRSE); test: as above
From the text: as §1

[8] = tested on: methicillin-sensitive Staphylococcus aureus (MSSA); test: as above
From the text: as §1

[9] = tested on: Enterococcus faecium (EFM); test: as above
From the text: as §1

[10] = tested on: methicillin-resistant Staphylococcus aureus (MRSA); test: as above
From the text: as §1

O=CN(O)C[C@@H](CC1CCCC1)C(=O)N1CC2(CC2)C[C@H]1c1nc2ccccc2[nH]1 [Example 42, N—((R)-3-((S)-6-(1H-benzimidazol-2-yl)-5-azaspiro[2.4]heptane-5-yl)-2-(cyclopentylmethyl)-3-propylcarbonyl)-N-hydroxyformamide]
inhibition at 30 µM [1]: 14% | Anti-bacterial activity (MIC), strain ECO+ 15-1 ([2]; clinical isolate ECO+ 15-1): 16 µg/mL | Anti-bacterial activity (MIC), strain ECO+ 15-2 ([2]; clinical isolate ECO+ 15-2): 32 µg/mL | Anti-bacterial activity (MIC), strain ECO+ 15-3 ([2]; clinical isolate ECO+ 15-3): 32 µg/mL | Anti-bacterial activity (MIC), strain ECO+ 15-4 ([2]; clinical isolate ECO+ 15-4): 16 µg/mL | Anti-bacterial activity (MIC), strain ECO− 15-1 ([2]; clinical isolate ECO− 15-1): 32 µg/mL | Anti-bacterial activity (MIC), strain ECO− 15-2 ([2]; clinical isolate ECO− 15-2): 32 µg/mL | Anti-bacterial activity (MIC), strain ECO− 15-3 ([2]; clinical isolate ECO− 15-3): 32 µg/mL | Anti-bacterial activity (MIC), strain ECO− 15-4 ([2]; clinical isolate ECO− 15-4): 32 µg/mL | Anti-bacterial activity (MIC), strain BCA 14-1 ([3]; clinical isolate BCA 14-1): 1 µg/mL | Anti-bacterial activity (MIC), strain BCA 14-4 ([3]; clinical isolate BCA 14-4): 2 µg/mL | Anti-bacterial activity (MIC), strain BCA 14-5 ([3]; clinical isolate BCA 14-5): 2 µg/mL | Anti-bacterial activity (MIC), strain BCA 14-6 ([3]; clinical isolate BCA 14-6): 2 µg/mL | Anti-bacterial activity (MIC), strain BCA 14-7 ([3]; clinical isolate BCA 14-7): 1 µg/mL | Anti-bacterial activity (MIC), strain BCA 14-8 ([3]; clinical isolate BCA 14-8): 4 µg/mL | Anti-bacterial activity (MIC), strain BCA 14-10 ([3]; clinical isolate BCA 14-10): 1 µg/mL | Anti-bacterial activity (MIC), strain SPN 16-2 ([4]; clinical isolate SPN 16-2): 1 µg/mL | Anti-bacterial activity (MIC), strain SPN 16-4 ([4]; clinical isolate SPN 16-4): 16 µg/mL | Anti-bacterial activity (MIC), strain EFA 15-1 ([5]; clinical isolate EFA 15-1): 16 µg/mL | Anti-bacterial activity (MIC), strain EFA 15-2 ([5]; clinical isolate EFA 15-2): 16 µg/mL | Anti-bacterial activity (MIC), strain EFA 15-3 ([5]; clinical isolate EFA 15-3): 4 µg/mL | Anti-bacterial activity (MIC), strain EFA 15-4 ([5]; clinical isolate EFA 15-4): 16 µg/mL | Anti-bacterial activity (MIC), strain EFA 15-5 ([5]; clinical isolate EFA 15-5): 16 µg/mL | Anti-bacterial activity (MIC), strain EFA 15-6 ([5]; clinical isolate EFA 15-6): 16 µg/mL | Anti-bacterial activity (MIC), strain EFA 15-9 ([5]; clinical isolate EFA 15-9): 16 µg/mL | Anti-bacterial activity (MIC), strain MSSE 15-3 ([6]; clinical isolate MSSE 15-3): 2 µg/mL | Anti-bacterial activity (MIC), strain MSSE 15-4 ([6]; clinical isolate MSSE 15-4): 2 µg/mL | Anti-bacterial activity (MIC), strain MSSE 15-5 ([6]; clinical isolate MSSE 15-5): 2 µg/mL | Anti-bacterial activity (MIC), strain MSSE 15-6 ([6]; clinical isolate MSSE 15-6): 2 µg/mL | Anti-bacterial activity (MIC), strain MRSE 15-1 ([7]; clinical isolate MRSE 15-1): 2 µg/mL | Anti-bacterial activity (MIC), strain MRSE 15-2 ([7]; clinical isolate MRSE 15-2): 2 µg/mL | Anti-bacterial activity (MIC), strain MRSE 15-3 ([7]; clinical isolate MRSE 15-3): 2 µg/mL | Anti-bacterial activity (MIC), strain MRSE 15-7 ([7]; clinical isolate MRSE 15-7): 2 µg/mL | Anti-bacterial activity (MIC), strain MSSA 15-3 ([8]; clinical isolate MSSA 15-3): 2 µg/mL | Anti-bacterial activity (MIC), strain MSSA 15-4 ([8]; clinical isolate MSSA 15-4): 2 µg/mL | Anti-bacterial activity (MIC), strain MSSA 15-5 ([8]; clinical isolate MSSA 15-5): 1 µg/mL | Anti-bacterial activity (MIC), strain MSSA 15-6 ([8]; clinical isolate MSSA 15-6): 2 µg/mL | Anti-bacterial activity (MIC), strain EFM 15-1 ([9]; clinical isolate EFM 15-1): 2 µg/mL | Anti-bacterial activity (MIC), strain EFM 15-2 ([9]; clinical isolate EFM 15-2): 4 µg/mL | Anti-bacterial activity (MIC), strain EFM 15-3 ([9]; clinical isolate EFM 15-3): 1 µg/mL | Anti-bacterial activity (MIC), strain EFM 15-4 ([9]; clinical isolate EFM 15-4): 4 µg/mL | Anti-bacterial activity (MIC), strain EFM 15-5 ([9]; clinical isolate EFM 15-5): 2 µg/mL | Anti-bacterial activity (MIC), strain EFM 15-6 ([9]; clinical isolate EFM 15-6): 4 µg/mL | Anti-bacterial activity (MIC), strain MRSA 15-1 ([10]; clinical isolate MRSA 15-1): 2 µg/mL | Anti-bacterial activity (MIC), strain MRSA 15-2 ([10]; clinical isolate MRSA 15-2): 2 µg/mL | Anti-bacterial activity (MIC), strain MRSA 15-3 ([10]; clinical isolate MRSA 15-3): 1 µg/mL | Anti-bacterial activity (MIC), strain MRSA 15-4 ([10]; clinical isolate MRSA 15-4): 1 µg/mL
